Test results as given in patent US12295936B2, “Immunomodulating urea azalides” (Zoetis Services LLC, priority 2020, dated 2025).
“Also recorded” adds a separate entry of the source. Where two headings read alike, the source gives them in different places.

Assays:
[1] = test system: M. haemolytica (OSU-012103-BHI); experiment: In vivo bovine M. haemolytica intratracheal lung infection challenge model; details: for Mortality/Euthanization No, % / Mortality/Euthanization No, Number: surviving animals; for Significance to T01, mortality: p≤0.2
[2] = Plasma pharmacokinetics in cattle; details: following a 10 mg/kg dose, separate PK study
Procedure: The primary clinical endpoint for efficacy was treatment failure/success over a 14-day observation period. Clinically normal beef calves (150-200 kg) at moderate risk for BRD were dosed on arrival to the feedlot. Animals (N=114/group) received saline (T01), 5 mg/kg M9 (T02), 10 mg/kg M9 (T03) or Zactran (T04).

TNF-α = experiment: LPS-stimulated whole bovine blood assay, MSD cytokine detection; assay type: cell-based; details: for IC50: Bos taurus
E. coli = experiment: In-vitro MIC model (CLSI broth micro-dilution); details: Escherichia coli, ATCC25922, read-out: Comparative MIC's, E. coli ATCC 25922
CD163 = CD163 expression by flow cytometry, blood of treated/challenged cattle; details: blood macrophages
IL-1β = experiment: LPS-stimulated whole bovine blood assay, MSD cytokine detection; assay type: cell-based; details: for IC50: Bos taurus, LPS-stimulated whole bovine blood, * = enhanced response at concentration indicating potential cytotoxicity; for IL-1β OS of LPS: overstimulation of IL-1β, LPS-stimulated bovine whole blood
[3] = pH dependent aqueous solubility; assay type: physicochemical
Procedure: In an aqueous solution, Example H-11 exists as an equilibrated mixture of two lactone isomers as shown above. The ratio is approximately 9:1 lactone A:B. The rate of equilibration depends on pH and temperature, with neutral pH giving faster equilibration, pH˜5-6 giving much slower equilibration, and higher temperatures resulting in faster equilibration. Equilibration occurs in under 1-hour at pH>6 and temperatures >60° C. H-11 isomerization is a 6 exo-Trig cyclization and is a favored reaction by Baldwin's Rules. The dominant isomer, lactone-A, is a 15-membered macrocyclic lactone, while the minor isomer, lactone-B, is a 13-membered macrocyclic lactone. […] Due to the pH dependent solubility of H-11, and other compounds of the invention, dissolution of an organic acid (e.g., citric acid) into water prior to adding the active agent (e.g., H-11) may be necessary to ensure complete dissolution, particularly for higher concentration solutions, thereby providing a solution with enough buffering capacity for dissolution.

IL-36RA = IL-36RA change during natural infection bovine studies; assay type: in vivo, cattle; details: H-91 0.5 mg/kg, H-11 0.1 mg/kg; for IL-36RA concentration relative to the baseline concentration after the elevation: after roughly 8 hours; for increase in IL-36RA compared to baseline: within 1 hour, FIG. 5
Procedure: (§1) Intensive sample collection was conducted over a 96-hour period in a subset of cattle treated with Example H-91 (0.5 mg/kg) or H-11 (0.1 mg/kg) in the natural bovine infection studies. […] The compounds of the invention have shown an up-regulation of IL-36RA, which then binds to IL-36R limiting the pro-inflammatory response of IL-36. In addition, the IL-8 levels from one of the natural infection studies with Example H-91, increased 270% over the course of the study for control animals. In contrast, the IL-8 levels in animals dosed with Example H-91 decreased by about 15%.

[4] = Lactone A / lactone B equilibration in aqueous solution; assay type: physicochemical; details: pH>6 and temperatures >60° C.
Procedure: The H-11 lactones were separated by HPLC using an Agilent 1100 quaternary pump and diode array detector (250 nm) with an X-select CSH C18 column (150×4.6 mm, 2.5 μm) at 50° C. using a gradient mobile phase (mp) comprising 0.03% H2SO4 in water (mpA) and acetonitrile (mpB) over 16 minutes. Lactone A eluted at 5.8 minutes (area % 92.4) and lactone B eluted at 5.2 minutes (area % 7.6).
In an aqueous solution, Example H-11 exists as an equilibrated mixture of two lactone isomers as shown above. The ratio is approximately 9:1 lactone A:B. The rate of equilibration depends on pH and temperature, with neutral pH giving faster equilibration, pH˜5-6 giving much slower equilibration, and higher temperatures resulting in faster equilibration. Equilibration occurs in under 1-hour at pH>6 and temperatures >60° C. H-11 isomerization is a 6 exo-Trig cyclization and is a favored reaction by Baldwin's Rules. The dominant isomer, lactone-A, is a 15-membered macrocyclic lactone, while the minor isomer, lactone-B, is a 13-membered macrocyclic lactone. […]

[5] = test system: IL-17 / IFN-γ producing CD4+ T helper cells; experiment: In vivo genomics challenge model: T helper subtypes and airway IL-17; design: species or system Holstein cattle
[6] = test system: E. coli and Salmonella isolates; experiment: Ames mutagenicity test; assay type: cell-based; details: 1-5000 μg/plate, plate incorporation method
Procedure: In an Ames mutagenicity test, Example H-91 (1-5000 μg/plate; using the plate incorporation method and a standard panel of bacterial (E. coli and Salmonella isolates) was negative (non-mutagenic).

IL-8 = IL-8 levels in cattle (natural infection and M. hemolytica challenge studies); assay type: in vivo; details: over the course of a natural infection study; control animals increased 270%
Procedure: as §1

[7] = Table 7 study, T04: 10 mg/kg subcutaneous, positive control
[8] = Table 9 study, T05: 10 mg/kg subcutaneous, positive control
[9] = LPS-stimulated bovine whole blood, read-out: TNF-α (IC50 μM)
[10] = LPS-stimulated whole bovine blood, read-out: TNF-α IC50
[11] = Table 9 study, T03: 0.5 mg/kg subcutaneous
[12] = Table 9 study, T04: 2.5 mg/kg subcutaneous
[13] = 4 independent studies with multiple blood donors, FIG. 4
[14] = Table 7 study, T02: 0.5 mg/kg subcutaneous
[15] = Table 7 study, T03: 2.5 mg/kg subcutaneous

With `CCCNC[C@]1(O)[C@H](C)O[C@@H](O[C@H]2[C@H](C)[C@@H](O[C@@H]3O[C@H](C)C[C@H](NC)[C@H]3O)[C@](C)(O)C[C@@H](C)CN[C@H](C)[C@@H](O)[C@](C)(O)[C@@H](CC)OC(=O)[C@@H]2C)C[C@@]1(C)OC` [Example M9, (2R,3S,4R,5R,8R,10R,11R,12S,13S,14R)-2-ethyl-3,4,10-trihydroxy-13-(((2R,4R,5S,6S)-5-hydroxy-4-methoxy-4,6-dimethyl-5-((propylamino)methyl)-tetrahydro-2H-pyran-2-yl)oxy)-11-(((2S,3R,4S,6R)-3-hydroxy-6-methyl-4-(methylamino)tetrahydro-2H-pyran-2-yl)oxy)-3,5,8,10,12,14-hexamethyl-1-oxa-6-azacyclopentadecan-15-one, reference compound] as the compound, how does the Mortality ([1]; 10 mg/kg, separate study, saline control 38.9%) read?
The Mortality was 13%.

And the Mortality ([1]; T02: 10 mg/kg subcutaneous Day -1, M. haemolytica challenge Day 0, 6 animals)?
The Mortality was 1/6.

What about the Mortality ([1]; T04: 10 mg/kg subcutaneous Day -1, No challenge, 6 animals) of the same compound?
The Mortality was 0/6.

What about the “Significance at .20 level to T01, lung lesions” value (from here on “Significance at .20 level to T01”) ([1]; Table 6 study, T04: 10 mg/kg subcutaneous) of the same compound?
The value was “Yes”.

And the “Mortality/Euthanization Yes, %” value [1, 7]?
The value was 12.5%.

And the “Mortality/Euthanization Yes, Number” value [1, 7]?
Its value is 3.

And the “Mortality/Euthanization No, %” value [1, 7]?
The value was 87.5%.

And the “Mortality/Euthanization No, Number” value [1, 7]?
Its value is 21.

And the “Significance to T01, mortality” value ([1]; Table 7 study, T04: 10 mg/kg subcutaneous)?
The value was “Yes”.

And the “Significance at .20 level to T01” value ([1]; Table 8 study, T05: 10 mg/kg subcutaneous)?
The value was “yes”.

What about the “Mortality/Euthanization Yes, %” value [1, 8] of the same compound?
Its value is 13.0%.

What about the “Mortality/Euthanization Yes, Number” value [1, 8] of the same compound?
The value was 3.

What about the “Mortality/Euthanization No, %” value [1, 8] of the same compound?
Its value is 87.0%.

And the “Mortality/Euthanization No, Number” value [1, 8]?
Its value is 20.

And the “Significance to T01, mortality” value ([1]; Table 9 study, T05: 10 mg/kg subcutaneous)?
Its value is “Yes”.

And the maximum plasma concentration [2]?
Its maximum plasma concentration is 5 µg/mL.

What about the IC50 (TNF-α; [9]) of the same compound?
Its IC50 is 250 µM.

And the IC50 (TNF-α; [10])?
Its IC50 is roughly 250 µM.

And the MIC (E. coli)?
The MIC was greater than 64 µg/mL.

What about the “CD163 expression in treated cattle” value (CD163) of the same compound?
Its value is “suppressed; also recorded: mitigates; also recorded: downregulated”.

What about the IC50 (IL-1β) of the same compound?
Its IC50 is roughly 250 µM.

Which results are given for `CCCNC[C@]1(O)[C@H](C)O[C@@H](O[C@H]2[C@H](C)[C@@H](O[C@@H]3O[C@H](C)C[C@H](N(C)C(=O)N(C)c4ccccc4)[C@H]3O)[C@](C)(O)C[C@@H](C)CN[C@H](C)[C@@H](O)[C@](C)(O)[C@@H](CC)OC(=O)[C@@H]2C)C[C@@]1(C)OC` [Example H-11, 1-((2S,3R,4S,6R)-2-(((2R,3S,4R,5R,8R,10R,11R,12S,13S,14R)-2-ethyl-3,4,10-trihydroxy-13-(((2R,4R,5S,6S)-5-hydroxy-4-methoxy-4,6-dimethyl-5-((propylamino)methyl)tetrahydro-2H-pyran-2-yl)oxy)-3,5,8,10,12,14-hexamethyl-15-oxo-1-oxa-6-azacyclopentadecan-11-yl)oxy)-3-hydroxy-6-methyltetrahydro-2H-pyran-4-yl)-1,3-dimethyl-3-phenylurea]?
Significance at .20 level to T01, lung lesions ([1]; Table 8 study, T03: 0.5 mg/kg subcutaneous): No; Significance at .20 level to T01, lung lesions ([1]; Table 8 study, T04: 2.5 mg/kg subcutaneous): Yes; Mortality/Euthanization Yes, % [1, 11]: 16.7%; Mortality/Euthanization Yes, Number [1, 11]: 4; Significance to T01, mortality [1, 11]: Yes; Mortality/Euthanization No, % [1, 11]: 83.3%; Mortality/Euthanization No, Number [1, 11]: 20; Mortality/Euthanization Yes, % [1, 12]: 25.0%; Mortality/Euthanization Yes, Number [1, 12]: 6; Significance to T01, mortality [1, 12]: No; Mortality/Euthanization No, % [1, 12]: 75.0%; Mortality/Euthanization No, Number [1, 12]: 18; number of blood neutrophils ([1]; treatment 24 hours prior to challenge, FIG. 8): reduced; aqueous solubility ([3]; acidic pH): very soluble; aqueous solubility ([3]; as the pH approaches neutral conditions): lower solubility; expression of TNF-α, LPS stimulated whole bovine blood (TNF-α; [13]): dose dependent reduction; IC50 (TNF-α; [9]): 8 µM; IC50 (TNF-α; [10]): 8 µM; CD163 expression in treated cattle (CD163): reduced; also recorded: downregulated; IL-36RA concentration relative to the baseline concentration after the elevation (IL-36RA): −55%; increase in IL-36RA compared to baseline (IL-36RA): about 50%; time to equilibration of the lactone isomers [4]: under 1 hour; expression of IL-1β, LPS stimulated whole bovine blood (IL-1β; [13]): dose dependent reduction; IC50 (IL-1β): 36 µM; IL-1β OS of LPS (IL-1β): 32 µM; Th1:Th17 ratio post-treatment ([5]; 0.1 mg/kg (T02), blood at 24 and 48 hours, FIG. 9): increase; IL-17 levels in the airway (BAL fluid, consolidated lung tissue) ([5]; animals challenged with M. haemolytica, FIG. 10): reduction; Ames mutagenicity test [6]: non-mutagenic

With `CCCNC[C@]1(O)[C@H](C)O[C@@H](O[C@H]2[C@H](C)[C@@H](O[C@@H]3O[C@H](C)C[C@H](N(C)C(=O)Nc4ccccc4)[C@H]3O)[C@](C)(O)C[C@@H](C)CN[C@H](C)[C@@H](O)[C@](C)(O)[C@@H](CC)OC(=O)[C@@H]2C)C[C@@]1(C)OC` [Example H-91, 1-((2S,3R,4S,6R)-2-(((2R,3S,4R,5R,8R,10R,11R,12S,13S,14R)-2-ethyl-3,4,10-trihydroxy-13-(((2R,4R,5S,6S)-5-hydroxy-4-methoxy-4,6-dimethyl-5-((propylamino)methyl)tetrahydro-2H-pyran-2-yl)oxy)-3,5,8,10,12,14-hexamethyl-15-oxo-1-oxa-6-azacyclopentadecan-11-yl)oxy)-3-hydroxy-6-methyltetrahydro-2H-pyran-4-yl)-1-methyl-3-phenylurea] as the compound, how does the “Significance at .20 level to T01” value ([1]; Table 6 study, T02: 0.5 mg/kg subcutaneous) read?
Its value is “Yes”.

And the “Significance at .20 level to T01” value ([1]; Table 6 study, T03: 2.5 mg/kg subcutaneous)?
The value was “Yes”.

What about the “Mortality/Euthanization Yes, %” value [1, 14] of the same compound?
Its value is 0%.

And the “Mortality/Euthanization Yes, Number” value [1, 14]?
Its value is 0.

And the “Significance to T01, mortality” value [1, 14]?
Its value is “Yes”.

What about the “Mortality/Euthanization No, %” value [1, 14] of the same compound?
The value was 100%.

And the “Mortality/Euthanization No, Number” value [1, 14]?
Its value is 23.

And the “Mortality/Euthanization Yes, %” value [1, 15]?
The value was 8.3%.

And the “Mortality/Euthanization Yes, Number” value [1, 15]?
The value was 2.

And the “Significance to T01, mortality” value [1, 15]?
Its value is “Yes”.

What about the “Mortality/Euthanization No, %” value [1, 15] of the same compound?
Its value is 91.7%.

What about the “Mortality/Euthanization No, Number” value [1, 15] of the same compound?
The value was 22.

What about the “decrease of IL-8 levels” value (IL-8) of the same compound?
Its value is “about 15%”.

And the IC50 (TNF-α; [9])?
The IC50 was 85 µM.

What about the IC50 (TNF-α; [10]) of the same compound?
The IC50 was 90 µM.

What about the “CD163 expression in treated cattle” value (CD163) of the same compound?
Its value is “suppressed; also recorded: reduction; also recorded: downregulated”.

What about the “IL-36RA concentration relative to the baseline concentration after the elevation” value (IL-36RA) of the same compound?
Its value is −55%.

And the “increase in IL-36RA compared to baseline” value (IL-36RA)?
The value was “about 275%”.

And the IC50 (IL-1β)?
The IC50 was 103 µM.

What about the “IL-1β OS of LPS” value (IL-1β) of the same compound?
The value was 130 µM.

What about the Ames mutagenicity test [6] of the same compound?
Its Ames mutagenicity test is “negative; also recorded: non-mutagenic”.
